Test results from article PMC4359537, “Pharmacological characterisation of murine α4β1δ GABAA receptors expressed in Xenopus oocytes” (BMC Neuroscience, 2015).
Values joined by “and” are separate entries in the source; they are usually repeats but may differ in a detail not shown here. Equal entries are not always repeated. “Also recorded” adds a separate entry of the source. Where two headings read alike, the source gives them in different places.

Key:
α4β1δ receptors = biological target: T1, α4β1δ receptors (UniProt P18506+P50571+Q9D6F4); test: Two-electrode voltage-clamp of murine α4β1δ GABAA receptors expressed in Xenopus oocytes; assay type: cell-based, mouse
T1 construct: expressed in transfected cells; host or cells: Xenopus laevis oocytes, cDNA-injected (pRK5 vector), ratio 1:1:5
T1 sequence (Q9D6F4 36-552): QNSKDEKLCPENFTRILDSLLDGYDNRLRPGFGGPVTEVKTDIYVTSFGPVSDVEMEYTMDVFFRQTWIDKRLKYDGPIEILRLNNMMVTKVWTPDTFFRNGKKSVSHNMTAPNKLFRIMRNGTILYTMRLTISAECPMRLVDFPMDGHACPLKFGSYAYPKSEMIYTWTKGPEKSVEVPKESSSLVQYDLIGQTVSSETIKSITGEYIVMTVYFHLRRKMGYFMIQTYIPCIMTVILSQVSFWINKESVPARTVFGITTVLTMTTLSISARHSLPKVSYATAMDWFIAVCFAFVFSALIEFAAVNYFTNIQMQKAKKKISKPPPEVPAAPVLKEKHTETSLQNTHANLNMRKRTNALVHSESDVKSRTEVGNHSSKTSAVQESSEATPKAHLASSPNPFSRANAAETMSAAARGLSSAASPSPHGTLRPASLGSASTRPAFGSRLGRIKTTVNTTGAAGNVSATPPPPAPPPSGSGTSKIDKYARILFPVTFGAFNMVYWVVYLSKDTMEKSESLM
T1 sequence (P50571 26-474): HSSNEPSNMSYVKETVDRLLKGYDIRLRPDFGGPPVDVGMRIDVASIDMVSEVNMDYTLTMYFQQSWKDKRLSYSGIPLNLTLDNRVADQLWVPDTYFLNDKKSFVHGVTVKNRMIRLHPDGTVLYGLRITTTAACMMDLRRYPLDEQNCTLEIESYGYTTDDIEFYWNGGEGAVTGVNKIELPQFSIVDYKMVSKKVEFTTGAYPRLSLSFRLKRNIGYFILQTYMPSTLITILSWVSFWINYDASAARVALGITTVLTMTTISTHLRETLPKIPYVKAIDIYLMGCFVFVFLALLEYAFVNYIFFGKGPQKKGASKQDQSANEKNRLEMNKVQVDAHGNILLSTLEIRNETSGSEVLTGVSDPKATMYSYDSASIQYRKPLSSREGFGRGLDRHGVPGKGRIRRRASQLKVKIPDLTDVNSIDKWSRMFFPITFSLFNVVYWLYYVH
T1 sequence (P18506 17-449 limits assumed): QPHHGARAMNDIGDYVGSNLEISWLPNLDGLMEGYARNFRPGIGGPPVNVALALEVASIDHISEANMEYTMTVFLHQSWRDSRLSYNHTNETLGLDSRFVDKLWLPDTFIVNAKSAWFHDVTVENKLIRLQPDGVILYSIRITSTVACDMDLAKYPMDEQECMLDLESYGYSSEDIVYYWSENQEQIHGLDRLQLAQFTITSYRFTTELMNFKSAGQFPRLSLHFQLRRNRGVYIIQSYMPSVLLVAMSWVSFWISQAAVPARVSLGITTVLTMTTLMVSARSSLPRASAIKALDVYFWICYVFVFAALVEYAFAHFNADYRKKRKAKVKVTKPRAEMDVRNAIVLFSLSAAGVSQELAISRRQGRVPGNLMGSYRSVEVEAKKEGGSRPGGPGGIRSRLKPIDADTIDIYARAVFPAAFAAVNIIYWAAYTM
Protocol: (§1) Oocytes from Xenopus laevis toads were prepared as described. […] To obtain free oocytes, ovarian lobes were cut into pieces and incubated in OR2 (85 mM NaCl, 5 mM HEPES, 1 mM MgCl2, pH adjusted to 7.6 with KOH) supplemented with 2-2.5 mg/mL collagenase type 1 (Lorne Laboratories, Danehill, UK) for 3-4 hrs. Oocytes were washed several times in OR2 and subsequently in Barth’s solution (88 mM NaCl, 1 mM KCl, 0.33 mM Ca(NO3)2, 0.41 mM CaCl2, 0.82 mM MgSO4, 2.4 mM NaHCO3, 10 mM HEPES, pH adjusted to 7.6 with NaOH) to isolate cells and remove follicular membranes. After preparation, the oocytes were injected with 27 or 55 nL of 30 ng/μL cDNA in a ratio of 1:1 (α4β1) or 1:1:5 (α4β1δ). Oocytes were subsequently maintained at 18°C in Barth’s solution supplemented with gentamycin (Invitrogen, Paisley, UK).
(§2) Electrodes were filled with 3 M KCl and had resistances of 0.5 to 3 MΩ. The oocytes were clamped at a holding potential of -60 mV and were perfused with buffer (100 mM NaCl, 2 mM KCl, 2 mM CaCl2, 1 mM MgCl2, 5 mM HEPES, pH adjusted to 7.4 with NaOH) throughout the recordings. All currents were adjusted when necessary for voltage drop using equation 1:1 I=Imeasured⋅Vh−Vrev/Vh−Vrev+ΔV
(§3) Drugs were applied using a fast application system coupled to a small bath volume ([…]), enabling drug onset times of ~ 10 ms.
(§4) For each co-application, the peak-response was measured. […] All monophasic inhibition-curves were fitted to a modified version of equation 2.
Normalized responses were pooled and plotted as mean ± SEM from at least four different oocytes taken from at least two different Xenopus toads. For statistical evaluation, a repeated measures ANOVA with Dunnett’s post test was used. The significance level was set at *P < 0.05, **P < 0.01, ***P < 0.001. For inhibition curves, an F-test was performed to determine whether the data was either monophasic or biphasic.

α2β1γ2 receptors = conditions: Xenopus oocytes; cited from earlier work
α4β1 receptors = biological target: T2, α4β1 receptors (Mus musculus, UniProt P50571+Q9D6F4); test: Two-electrode voltage-clamp of murine α4β1 GABAA receptors expressed in Xenopus oocytes; assay type: cell-based; conditions: for EC50: GABA-activated peak currents, oocytes clamped at -60 mV
T2 construct: expressed in transfected cells; host or cells: Xenopus laevis oocytes, cDNA-injected (pRK5 vector), ratio 1:1
T2 sequence (Q9D6F4 36-552): as the sequence (Q9D6F4 36-552) above
T2 sequence (P50571 26-474): as the sequence (P50571 26-474) above
Protocol: as §1, §2, §3, §4

α6β3δ receptors = conditions: cited from earlier work
α1β2γ2 receptors = conditions: steady-state GABA responses, HEK293 cells; cited from earlier work
[1] = inhibition of peak response to GABA EC20 after pre-application
[2] = Hill coefficient of GABA concentration response curve
[3] = depending upon expression levels
[4] = inhibition of peak response to GABA EC75 (3 μM), 1 min pre-incubation
[5] = GABA EC75 (8 μM), biphasic inhibition
[6] = inhibition of steady-state (desensitized) response after 70 s co-application with GABA EC75 (3 μM)

## O=C(N/N=C/c1ccccc1O)c1ccccc1O [SCS, salicylidine salicylhydrazide]
α4β1δ receptors; GABA EC20, incomplete inhibition of the GABA current
  steady-state level of inhibition: 67.2 ± 3.2 % of control
α4β1δ receptors; [1]
  IC50: 4.2 nM
  pIC50 ± SEM: 8.37 ± 0.25
α2β1γ2 receptors
  IC50: 4.36 nM
  maximum inhibition: ~ 33%

## NCCCC(=O)O [GABA, γ-Aminobutyric acid]
α4β1δ receptors; [2]
  nH (± SEM): 1.1 and 1.1 ± 0.11
α4β1δ receptors; [3]
  maximal currents to GABA: 300 to 3000 nA
α4β1 receptors; read-out: EC50
  EC50: 2700 nM
α4β1 receptors; read-out: pEC50 ± SEM (converted)
  EC50: 2750 nM
α4β1 receptors; [2]
  nH (± SEM): 0.87 and 0.87 ± 0.079
α4β1 receptors; [3]
  maximal currents to GABA: 100 to 3000 nA

## [Cl-].[Cl-].[Zn+2] [Zn^2+]
α4β1δ receptors; Hill slope of inhibition curve, peak response, GABA EC75
  nH (± SEM): −0.75 ± 0.041
α4β1δ receptors; from low micromolar to mid nanomolar
  potency shift in IC50 values, α4β1δ versus α4β1: approximately 60 fold
α4β1δ receptors; [4]
  IC50: 3300 nM
  pIC50 ± SEM: 5.48 ± 0.03
α4β1 receptors; [5]
  share of the total inhibition, high potency component (IC50A): ~ 25%
  share of the total inhibition, lower potency component (IC50B): ~ 75%
α4β1 receptors; GABA EC75 (8 μM), high potency component of two-site fit
  pIC50A ± SEM: 9.87 ± 0.22
α4β1 receptors; GABA EC75 (8 μM), high potency component of two-site fit, read-out: IC50A
  IC50: 0.13 nM
α4β1 receptors; GABA EC75 (8 μM), lower potency component of two-site fit
  pIC50B ± SEM: 7.25 ± 0.13
α4β1 receptors; GABA EC75 (8 μM), lower potency component of two-site fit, read-out: IC50B
  IC50: 56 nM
α4β1 receptors; Hill slope of IC50B component, GABA EC75
  nH (± SEM): -1.1 ± 0.13

## C[C@]12CC[C@@H](O)C[C@H]1CC[C@@H]1[C@@H]2CC[C@]2(C)[C@@H](C(=O)CO)CC[C@@H]12 [THDOC, tetrahydro-deoxycorticosterone]
α4β1δ receptors; THDOC 30 and 100 nM co-applied with GABA EC7, P < 0.05
  potentiation of GABA peak-response: significantly increased; also recorded: significant increase; also recorded: able to potentiate

## [Cl][Cu][Cl] [Cu^2+]
α4β1δ receptors; Hill slope of inhibition curve, steady-state response, GABA EC75
  nH (± SEM): −1.2 ± 0.13
α4β1δ receptors; at 10 μM, GABA EC75, oocytes
  maximal inhibition of desensitized GABA responses: 98 % inhibition
α4β1δ receptors; [6]
  IC50: 820 nM
  pIC50 ± SEM: 6.09 ± 0.04
α6β3δ receptors; HEK293
  maximal inhibition of the steady-state response: ~ 68%
α6β3δ receptors; steady-state GABA responses, HEK293 cells
  IC50: 65 nM
α1β2γ2 receptors
  IC50: 85000 nM
